Test results published in ChEMBL document CHEMBL1201862, “PubChem BioAssay data set” (2004).
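Results reflect a 48-hour exposure of cells in 96-well plates to compound at five concentrations. GI50 = concentration required for 50% inhibition of growth.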 Calls of active or inactive are those of the source. No stated cut-off is given here; in the data, active = GI50 up to about 1.1 µM and inactive = higher.

Legend:
Assay in all cases: NCI anticancer screen, dose series, 48 h
[1] = test system: 786-0
[2] = test system: A549
[3] = test system: ACHN
[4] = test system: BT-549
[5] = test system: CCRF-CEM
[6] = test system: DU-145
[7] = test system: EKVX
[8] = test system: HL-60
[9] = test system: HT-29
[10] = test system: Hs-578T
[11] = test system: IGROV-1
[12] = test system: K562
[13] = test system: KM12
[14] = test system: M14
[15] = test system: MCF7
[16] = test system: MDA-MB-231
[17] = test system: MDA-MB-435
[18] = test system: MDA-N
[19] = test system: MOLT-4
[20] = test system: NCI-H226
[21] = test system: NCI-H23
[22] = test system: NCI-H460
[23] = test system: NCI-H522
[24] = test system: OVCAR-3
[25] = test system: OVCAR-4
[26] = test system: OVCAR-5
[27] = test system: OVCAR-8
[28] = test system: RXF 393
[29] = test system: SF-268
[30] = test system: SF-295
[31] = test system: SF-539
[32] = test system: SK-MEL-5
[33] = test system: SNB-19
[34] = test system: SNB-75
[35] = test system: SR
[36] = test system: T47D
[37] = test system: TK-10
[38] = test system: U-251
[39] = test system: UACC-257
[40] = test system: UO-31
[41] = test system: A498
[42] = test system: COLO 205
[43] = test system: HCC 2998
[44] = test system: HCT-116
[45] = test system: HCT-15
[46] = test system: HOP-62
[47] = test system: HOP-92
[48] = test system: NCI/ADR-RES
[49] = test system: RPMI-8226
[50] = test system: SK-MEL-28
[51] = test system: SK-MEL-2
[52] = test system: SK-OV-3
[53] = test system: SN12C
[54] = test system: SW-620
[55] = test system: UACC-62
[56] = test system: CAKI-1
[57] = test system: LOX IMVI
[58] = test system: Malme-3M
[59] = test system: PC-3

Measured: GI50

CC(C)=Nn1cnc2c1=NC(C)(C)NC=2C(N)=O
active: [9] 1 µM | [16] 0.125 µM | [36] 0.001 µM
inactive: [1] > 10 µM | [2] > 10 µM | [3] > 10 µM | [4] > 10 µM | [5] > 10 µM | [6] > 10 µM | [7] > 10 µM | [8] > 10 µM | [10] > 10 µM | [11] > 10 µM | [12] > 10 µM | [13] > 10 µM | [14] > 10 µM | [15] > 10 µM | [17] > 10 µM | [18] > 10 µM | [19] > 10 µM | [20] > 10 µM | [21] > 10 µM | [22] > 10 µM | [23] > 10 µM | [24] > 10 µM | [25] > 10 µM | [26] > 10 µM | [27] > 10 µM | [28] > 10 µM | [29] > 10 µM | [30] > 10 µM | [31] > 10 µM | [32] > 10 µM | [33] > 10 µM | [34] > 10 µM | [35] > 10 µM | [37] > 10 µM | [38] > 10 µM | [39] > 10 µM | [40] > 10 µM

CC(=O)Nc1ccc(C(=O)NN2C(=O)CSC2c2ccc(O)cc2)cc1 (stereo not given)
inactive: [1] > 100 µM | [41] > 100 µM | [2] > 100 µM | [3] > 100 µM | [4] > 100 µM | [5] > 100 µM | [42] > 100 µM | [6] > 100 µM | [7] > 100 µM | [43] > 100 µM | [44] > 100 µM | [8] > 100 µM | [46] > 100 µM | [47] > 100 µM | [9] > 100 µM | [10] > 100 µM | [11] > 100 µM | [12] > 100 µM | [13] > 100 µM | [14] > 100 µM | [15] > 100 µM | [16] > 100 µM | [17] > 100 µM | [18] > 100 µM | [19] > 100 µM | [20] > 100 µM | [21] > 100 µM | [22] > 100 µM | [48] > 100 µM | [24] > 100 µM | [25] > 100 µM | [26] > 100 µM | [27] > 100 µM | [49] > 100 µM | [28] > 100 µM | [29] > 100 µM | [30] > 100 µM | [31] > 100 µM | [50] > 100 µM | [51] > 100 µM | [32] > 100 µM | [52] > 100 µM | [53] > 100 µM | [33] > 100 µM | [34] 91.6 µM | [54] > 100 µM | [36] > 100 µM | [37] > 100 µM | [38] > 100 µM | [39] > 100 µM | [55] > 100 µM | [40] > 100 µM
> 100 µM: [45]

COc1ccc(-c2cc(-c3ccccc3)nc(N)c2-c2ccc3ccccc3c2)cc1
inactive: [1] 1.73 µM | [41] 2.04 µM | [2] 2.21 µM | [3] 2.05 µM | [4] 1.64 µM | [56] 3.46 µM | [5] 3.13 µM | [42] 1.68 µM | [7] 1.83 µM | [43] 1.83 µM | [44] 1.24 µM | [46] 2.3 µM | [47] 1.5 µM | [10] 1.65 µM | [11] 1.68 µM | [12] 2.94 µM | [13] 1.73 µM | [57] 1.72 µM | [14] 2.53 µM | [15] 1.83 µM | [16] 1.6 µM | [17] 2.11 µM | [18] 1.6 µM | [19] 2.37 µM | [58] 1.25 µM | [20] 1.5 µM | [21] 1.86 µM | [22] 1.52 µM | [48] 1.98 µM | [24] 2.47 µM | [26] 1.77 µM | [27] 1.66 µM | [59] 2.22 µM | [49] 2.13 µM | [28] 1.82 µM | [29] 3.3 µM | [30] 1.87 µM | [31] 2.1 µM | [50] 1.95 µM | [51] 1.82 µM | [32] 1.77 µM | [52] 3.84 µM | [53] 1.86 µM | [33] 1.18 µM | [34] 2.3 µM | [35] 2.15 µM | [54] 1.75 µM | [36] 1.69 µM | [37] 3.15 µM | [38] 1.95 µM | [39] 1.86 µM | [55] 1.58 µM | [40] 1.99 µM
1.54 µM: [45]
active: [9] 1 µM | [23] < 0.01 µM | [25] 0.979 µM
